In article PMC7582770, “Synthesis of “All-Cis” Trihydroxypiperidines from a Carbohydrate-Derived Ketone: Hints for the Design of New β-Gal and GCase Inhibitors” (Molecules, 2020):
Entries after “also recorded” stand apart in the source; their conditions may differ.

Experiments:
[1] = tested on: β-mannosidase EC 3.2.1.25; assay: Commercial glycosidase screening; type: biochemical, snail; conditions: 0.1 mM inhibitor
Description: (§1) A panel of 12 commercial glycosidases (α-L-fucosidase EC 3.2.1.51 from Homo sapiens, α-galactosidase EC 3.2.1.22 from coffee beans, β-galactosidases EC 3.2.1.23 from Escherichia coli and Aspergillus oryzae, α-glucosidases EC 3.2.1.20 from yeast and rice, amyloglucosidase EC 3.2.1.3 from Aspergillus niger, β-glucosidase EC 3.2.1.21 from almonds, α-mannosidase EC 3.2.1.24 from Jack beans, β-mannosidase EC 3.2.1.25 from snail, β-N-acetylglucosaminidases EC 3.2.1.52 from Jack beans and bovine kidney) purchased from Sigma-Aldrich (St. Louis, MO, USA) or Megazyme Ltd. (Bray, Co. Wicklow, Ireland) was screened.
(§2) The percentage (%) of inhibition towards the corresponding glycosidase was determined in quadruplicate in the presence of 100 μM of the inhibitor on the well. Each enzymatic assay (final volume 0.12 mL) contains 0.01–0.5 units/mL of the enzyme (with previous calibration) and 4.2 mM aqueous solution of the appropriate p-nitrophenyl glycopyranoside (substrate) buffered to the optimal pH of the enzyme. Enzyme and inhibitor were preincubated for 5 min at room temperature, and the reaction started by addition of the substrate. After 20 min of incubation at 37 °C, the reaction was stopped by the addition of 0.1 mL of sodium borate solution (pH 9.8). The p-nitrophenolate formed was measured by visible absorption spectroscopy at 405 nm (Asys Expert 96 spectrophotometer, Biochrom Ltd., Cambridge, England). Under these conditions, the p-nitrophenolate released led to optical densities linear with both reaction time and concentration of the enzyme (for more details, see the Supplementary Materials). The IC50 value (concentration of inhibitor required for 50% inhibition of enzyme activity) was determined from plots of % inhibition vs. different inhibitor concentrations. Each point of the graph is the average of four measures. The standard deviation for each point has been also represented in the graph.

[2] = tested on: β-N-acetylglucosaminidase EC 3.2.1.52; assay: Commercial glycosidase screening; type: biochemical, Jack beans; conditions: 0.1 mM inhibitor
Description: as §1, §2

[3] = tested on: β-glucosidase EC 3.2.1.21; assay: Commercial glycosidase screening; type: biochemical, almonds; conditions: for % Inhibition at 0.1 mM, β-glucosidase almonds: 0.1 mM inhibitor
Description: as §1, §2

[4] = tested on: β-N-acetylglucosaminidase EC 3.2.1.52; assay: Commercial glycosidase screening; type: biochemical, bovine kidney; conditions: 0.1 mM inhibitor
Description: as §1, §2

[5] = molecular target: T1, GCase in fibroblasts with the N370S/RecNcil mutation (Homo sapiens, UniProt P04062, N409S); assay: Pharmacological chaperoning activity (GCase activity in Gaucher patient fibroblasts); type: cell-based; conditions: six concentrations (10 nM to 100 µM), 4 days incubation
T1 construct: Fibroblasts with the N370S/RecNcil mutation from patients with Gaucher disease; host or cells: human Gaucher patient fibroblasts, N370S/RecNciI
T1 sequence (P04062 40-536 N409S): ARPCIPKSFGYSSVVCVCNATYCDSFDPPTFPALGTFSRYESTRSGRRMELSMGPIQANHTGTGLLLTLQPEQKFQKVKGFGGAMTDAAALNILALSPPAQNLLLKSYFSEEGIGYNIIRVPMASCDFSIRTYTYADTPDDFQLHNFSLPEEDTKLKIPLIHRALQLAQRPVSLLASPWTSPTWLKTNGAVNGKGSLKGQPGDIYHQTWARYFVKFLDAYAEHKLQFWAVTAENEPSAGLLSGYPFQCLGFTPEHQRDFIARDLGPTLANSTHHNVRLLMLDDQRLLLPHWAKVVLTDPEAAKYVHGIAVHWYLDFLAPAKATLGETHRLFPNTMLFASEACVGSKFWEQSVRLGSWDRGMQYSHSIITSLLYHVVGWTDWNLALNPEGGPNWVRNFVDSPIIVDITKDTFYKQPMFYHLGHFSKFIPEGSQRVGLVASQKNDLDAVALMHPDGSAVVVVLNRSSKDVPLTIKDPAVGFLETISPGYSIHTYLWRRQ
Protocol: Fibroblasts with the N370S/RecNcil mutation from patients with Gaucher disease were obtained from the “Cell line and DNA Biobank from patients affected by Genetic Diseases” (Gaslini Hospital, Genova, Italy). Fibroblasts cells (15.0 × 10^4) were seeded in T25 flasks with DMEM supplemented with fetal bovine serum (10%), penicillin/streptomycin (1%), and glutamine (1%) and incubated at 37 °C with 5% CO2 for 24 h. The medium was removed, and fresh medium containing compound 10 was added to the cells and left for 4 days. The medium was removed, and the cells were washed with PBS and detached with trypsin to obtain cell pellets, which were washed four times with PBS, frozen, and lysed by sonication in water. Enzyme activity was measured as reported above. Reported data are mean S.D. (n = 2).
Pharmacological chaperoning activity
Fibroblasts with the N370S/RecNcil mutation from Gaucher disease patients were obtained from the “Cell line and DNA Biobank from patients affected by Genetic Diseases” (Gaslini Hospital, Genova, Italy). Fibroblasts cells (20.0 x 104) were seeded in T25 flasks with DMEM supplemented with fetal bovine serum (10%), penicillin/streptomycin (1%), and glutamine (1%) and incubated at 37 °C with 5% CO2 for 24 h. The medium was removed, and fresh medium containing the compounds 9, 10 or 12 at different concentrations (10 nM, 100 nM, 1 µM, 10 µM, 50 µM, 100 µM) was added to the cells and left for 4 days. The medium was removed, and the cells were washed with PBS and detached with trypsin to obtain cell pellets, which were washed four times with PBS, frozen and lysed by sonication in water. Enzyme activity was measured as reported above. Reported data are mean S.D. (n=2).
Figure S52: GCase activity in human fibroblasts derived from GD patients bearing N370/RecNcil mutations in the presence of compound 9.
Figure S53: GCase activity in human fibroblasts derived from GD patients bearing N370/RecNcil mutations in the presence of compound 10. The flasks containing cells incubated with 100 µM and 50 µM […]

Row | SMILES | % Inhibition at 0.1 mM, β-mannosidase snail [1] | % Inhibition at 0.1 mM, β-N-acetylglucosaminidase Jack beans [2] | % Inhibition at 0.1 mM, β-glucosidase almonds [3] | % Inhibition at 0.1 mM, β-N-acetylglucosaminidase bovine kidney [4] | IC50 ([3]; read-out: IC50 (β-glucosidase from almonds)) [µM] | GCase enzyme rescue (chaperoning activity) [5]
1 | CCCCCCCCCO[C@@H]1CNC[C@@H](O)[C@H]1O [compound 21, (3R, 4R, 5R)-4,5-Dihydroxy-3-(Nonyloxy) Piperidine] | - (no inhibition detected) | - (no inhibition detected) | - (no inhibition detected) | - (no inhibition detected) | – | –
2 | CCCCCCCCCCCCN[C@H]1CNC[C@@H](O)[C@H]1O [compound 10, (3R, 4S, 5S)-3,4-Dihydroxy-5-(Dodecylamino) Piperidine] | - (no inhibition detected) | - (no inhibition detected) | 51±1% | - (no inhibition detected) | 85 | failed to rescue the enzyme activity; also recorded: did not impart any enzyme rescue; also recorded: None of the compounds gave enzyme rescue
3 | CCCCCCCC[C@]1(O)CNC[C@@H](O)[C@H]1O [compound 12, (3S, 4R, 5R)-3,4,5-Trihydroxy-3-Octyl-Piperidine] | - (no inhibition detected) | - (no inhibition detected) | - (no inhibition detected) | - (no inhibition detected) | – | did not impart any enzyme rescue; also recorded: None of the compounds gave enzyme rescue
4 | CCCCCCCCCO[C@H]1CNC[C@@H](O)[C@H]1O [compound 9, (3S, 4R, 5R)-4,5-Dihydroxy-3-(Nonyloxy) Piperidine] | – | – | – | – | – | did not impart any enzyme rescue; also recorded: None of the compounds gave enzyme rescue
